What was measured:
Experiment in all cases: cells
RS4-11 = type: functional, cell-based; details: Homo sapiens;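 further: growth inhibition of RS4-11 cells, read out by a cell viability assay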
Description: SANGER: Inhibition of human RS4-11 cell growth in a cell viability assay.

ETK-1 = type: functional, cell-based; details: Homo sapiens;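 further: growth inhibition of human ETK-1 cells, read out with a cell viability assay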
Description: SANGER: Inhibition of human ETK-1 cell growth in a cell viability assay.

NCI-H1304 = type: functional, cell-based; details: Homo sapiens;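 further: growth inhibition of the cancer cell line, measured in a cell viability assay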
Description: SANGER: Inhibition of human NCI-H1304 cell growth in a cell viability assay.

MFM-223 = type: functional, cell-based; details: Homo sapiens
Description: SANGER: Inhibition of human MFM-223 cell growth in a cell viability assay.

NOMO-1 = type: functional, cell-based; details: Homo sapiens;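 further: growth inhibition of human NOMO-1 cells measured by a cell viability assay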
Description: SANGER: Inhibition of human NOMO-1 cell growth in a cell viability assay.

Ramos-2G6-4C10 = type: functional, cell-based; details: Homo sapiens;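 further: growth inhibition of the cell line, measured by a cell viability read-out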
Description: SANGER: Inhibition of human Ramos-2G6-4C10 cell growth in a cell viability assay.

HCE-T = type: functional, cell-based; details: Homo sapiens;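 further: cell viability assay read-out, reporting inhibition of HCE-T cell growth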
Description: SANGER: Inhibition of human HCE-T cell growth in a cell viability assay.

KNS-81-FD = type: functional, cell-based; details: Homo sapiens;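 further: growth inhibition of KNS-81-FD cells, read out with a cell viability assay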
Description: SANGER: Inhibition of human KNS-81-FD cell growth in a cell viability assay.

SF-539 = type: functional, cell-based; details: Homo sapiens;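 further: Read-out is a cell viability assay, with IC50 reflecting inhibition of cell growth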
Description: SANGER: Inhibition of human SF539 cell growth in a cell viability assay.

U-87 MG = type: functional, cell-based, U-87MG ATCC; details: Homo sapiens;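 further: growth inhibition of the cells measured with a viability assay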
Description: SANGER: Inhibition of human U-87-MG cell growth in a cell viability assay.

KARPAS-45 = type: functional, cell-based; details: Homo sapiens;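 further: inhibition of cell line growth, read out through a viability assay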
Description: SANGER: Inhibition of human KARPAS-45 cell growth in a cell viability assay.

LB2241-RCC = type: functional, cell-based; details: Homo sapiens;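 further: cell viability assay measuring how strongly the cultured human renal carcinoma line is prevented from growing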
Description: SANGER: Inhibition of human LB2241-RCC cell growth in a cell viability assay.

ML-2 = type: functional, cell-based; details: Homo sapiens;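 further: growth inhibition of ML-2 cells, measured with a cell viability readout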
Description: SANGER: Inhibition of human ML-2 cell growth in a cell viability assay.

NEC8 = type: functional, cell-based; details: Homo sapiens;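 further: growth inhibition of human NEC8 cells, read out by a cell viability assay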
Description: SANGER: Inhibition of human NEC8 cell growth in a cell viability assay.

OCI-AML2 = type: functional, cell-based; details: Homo sapiens;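 further: growth inhibition of OCI-AML2 cells, read out with a cell viability assay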
Description: SANGER: Inhibition of human OCI-AML2 cell growth in a cell viability assay.

KMOE-2 = type: functional, cell-based; details: Homo sapiens;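 further: growth inhibition of human KMOE-2 cells, read out with a cell viability assay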
Description: SANGER: Inhibition of human KMOE-2 cell growth in a cell viability assay.

MZ2-MEL = type: functional, cell-based; details: Homo sapiens;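 further: growth inhibition of MZ2-MEL cells read out with a cell viability assay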
Description: SANGER: Inhibition of human MZ2-MEL cell growth in a cell viability assay.

HT-144 = type: functional, cell-based; details: Homo sapiens
Description: SANGER: Inhibition of human HT-144 cell growth in a cell viability assay.

NCI-H1395 = type: functional, cell-based; details: Homo sapiens;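 further: cell viability assay read-out quantifying reduced proliferation of human NCI-H1395 cells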
Description: SANGER: Inhibition of human NCI-H1395 cell growth in a cell viability assay.

HD-MY-Z = type: functional, cell-based; details: Homo sapiens;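 further: growth inhibition of HD-MY-Z cells, read out with a cell viability assay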
Description: SANGER: Inhibition of human HD-MY-Z cell growth in a cell viability assay.

P30-OHK = type: functional, cell-based; details: Homo sapiens;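 further: growth inhibition of the P30-OHK cell line, read out with a cell viability assay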
Description: SANGER: Inhibition of human P30-OHK cell growth in a cell viability assay.

TE-6 = type: functional, cell-based; details: Homo sapiens;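 further: growth inhibition of TE-6 cells, read out with a cell viability assay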
Description: SANGER: Inhibition of human TE-6 cell growth in a cell viability assay.

CAS-1 = type: functional, cell-based; details: Homo sapiens;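 further: growth inhibition of CAS-1 cells, measured with a cell viability assay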
Description: SANGER: Inhibition of human CAS-1 cell growth in a cell viability assay.

NCI-H1155 = type: functional, cell-based; details: Homo sapiens;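 further: cell growth inhibition measured by a viability assay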
Description: SANGER: Inhibition of human NCI-H1155 cell growth in a cell viability assay.

LS-123 = type: functional, cell-based; details: Homo sapiens
Description: SANGER: Inhibition of human LS-123 cell growth in a cell viability assay.

GB-1 = type: functional, cell-based; details: Homo sapiens;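 further: growth of GB-1 cells judged by a viability assay, IC50 marks the concentration inhibiting growth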
Description: SANGER: Inhibition of human GB-1 cell growth in a cell viability assay.

EW-13 = type: functional, cell-based; details: Homo sapiens;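 further: growth inhibition of EW-13 cells, read out with a cell viability assay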
Description: SANGER: Inhibition of human EW-13 cell growth in a cell viability assay.

QIMR-WIL = type: functional, cell-based; details: Homo sapiens;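 further: growth inhibition of QIMR-WIL cells, read out with a cell viability assay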
Description: SANGER: Inhibition of human QIMR-WIL cell growth in a cell viability assay.

SK-N-FI = type: functional, cell-based; details: Homo sapiens;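 further: cell viability assay measuring growth inhibition of human SK-N-FI cells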
Description: SANGER: Inhibition of human SK-N-FI cell growth in a cell viability assay.

GAK = type: functional, cell-based; details: Homo sapiens;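 further: cell growth inhibition read out by a cell viability assay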
Description: SANGER: Inhibition of human GAK cell growth in a cell viability assay.

TE-9 = type: functional, cell-based; details: Homo sapiens;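 further: cell growth inhibition, measured with a cell viability readout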
Description: SANGER: Inhibition of human TE-9 cell growth in a cell viability assay.

MOLT-4 = type: functional, cell-based; details: Homo sapiens;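 further: growth inhibition of MOLT-4 cells, determined with a cell viability readout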
Description: SANGER: Inhibition of human MOLT-4 cell growth in a cell viability assay.

ES5 = type: functional, cell-based; details: Homo sapiens;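 further: growth inhibition of human ES5 cells, read out by a cell viability assay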
Description: SANGER: Inhibition of human ES5 cell growth in a cell viability assay.

SNB-75 = type: functional, cell-based; details: Homo sapiens;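 further: cell viability assay measuring growth inhibition of human SNB-75 cells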
Description: SANGER: Inhibition of human SNB75 cell growth in a cell viability assay.

UACC-257 = type: functional, cell-based; details: Homo sapiens
Description: SANGER: Inhibition of human UACC-257 cell growth in a cell viability assay.

REH = type: functional, cell-based; details: Homo sapiens;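 further: growth inhibition of REH cells determined with a cell viability read-out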
Description: SANGER: Inhibition of human REH cell growth in a cell viability assay.

KM12 = type: functional, cell-based; details: Homo sapiens;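 further: KM12 cell growth inhibition, read out with a cell viability assay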
Description: SANGER: Inhibition of human KM12 cell growth in a cell viability assay.

CTV-1 = type: functional, cell-based; details: Homo sapiens;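 further: growth inhibition of the cell line, read out with a cell viability assay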
Description: SANGER: Inhibition of human CTV-1 cell growth in a cell viability assay.

CA46 = type: functional, cell-based; details: Homo sapiens;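 further: growth inhibition of human CA46 cells, read out by a cell viability assay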
Description: SANGER: Inhibition of human CA46 cell growth in a cell viability assay.

EOL1 = type: functional, cell-based; details: Homo sapiens;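 further: growth inhibition of EoL-1 cells, read out by a cell viability assay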
Description: SANGER: Inhibition of human EoL-1-cell cell growth in a cell viability assay.

SNU-5 = type: functional, cell-based; details: Homo sapiens;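 further: cell viability readout used to measure growth inhibition in human NCI-SNU-5 cells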
Description: SANGER: Inhibition of human NCI-SNU-5 cell growth in a cell viability assay.

DMS-79 = type: functional, cell-based; details: Homo sapiens;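 further: growth inhibition measured with a cell viability assay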
Description: SANGER: Inhibition of human DMS-79 cell growth in a cell viability assay.

RKO = type: functional, cell-based; details: Homo sapiens;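 further: growth inhibition of human RKO cells, read out with a cell viability assay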
Description: SANGER: Inhibition of human RKO cell growth in a cell viability assay.

SK-LMS-1 = type: functional, cell-based; details: Homo sapiens;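 further: growth inhibition of human SK-LMS-1 cells, read out with a cell viability assay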
Description: SANGER: Inhibition of human SK-LMS-1 cell growth in a cell viability assay.

KG-1 = type: functional, cell-based; details: Homo sapiens;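 further: growth inhibition of KG-1 cells, read out by a cell viability assay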
Description: SANGER: Inhibition of human KG-1 cell growth in a cell viability assay.

SH-4 = type: functional, cell-based; details: Homo sapiens;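 further: growth inhibition of SH-4 cells, read out with a cell viability assay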
Description: SANGER: Inhibition of human SH-4 cell growth in a cell viability assay.

DB = type: functional, cell-based; details: Homo sapiens
Description: SANGER: Inhibition of human DB cell growth in a cell viability assay.

OS-RC-2 = type: functional, cell-based; details: Homo sapiens;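 further: growth inhibition of human OS-RC-2 cells, measured by a cell viability assay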
Description: SANGER: Inhibition of human OS-RC-2 cell growth in a cell viability assay.

HH = type: functional, cell-based; details: Homo sapiens
Description: SANGER: Inhibition of human HH cell growth in a cell viability assay.

GR-ST = type: functional, cell-based; details: Homo sapiens
Description: SANGER: Inhibition of human GR-ST cell growth in a cell viability assay.

LOUCY = type: functional, cell-based; details: Homo sapiens;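 further: growth inhibition of human LOUCY cells, read out with a cell viability assay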
Description: SANGER: Inhibition of human LOUCY cell growth in a cell viability assay.

IST-SL1 = type: functional, cell-based; details: Homo sapiens;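 further: growth inhibition of human IST-SL1 cells, read out with a cell viability assay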
Description: SANGER: Inhibition of human IST-SL1 cell growth in a cell viability assay.

KU812 cell line = type: functional, cell-based; details: Homo sapiens;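 further: growth inhibition of KU812 cells, read out with a cell viability assay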
Description: SANGER: Inhibition of human KU812 cell growth in a cell viability assay.

SW 954 = type: functional, cell-based; details: Homo sapiens;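 further: growth inhibition of SW954 human cancer cells, read out as cell viability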
Description: SANGER: Inhibition of human SW954 cell growth in a cell viability assay.

DOHH-2 = type: functional, cell-based; details: Homo sapiens;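 further: growth inhibition of human DOHH-2 cells, read out with a cell viability assay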
Description: SANGER: Inhibition of human DOHH-2 cell growth in a cell viability assay.

LB2518-MEL = type: functional, cell-based; details: Homo sapiens
Description: SANGER: Inhibition of human LB2518-MEL cell growth in a cell viability assay.

C-33-A = type: functional, cell-based; details: Homo sapiens
Description: SANGER: Inhibition of human C-33-A cell growth in a cell viability assay.

NCI-H2228 = type: functional, cell-based; details: Homo sapiens
Description: SANGER: Inhibition of human NCI-H2228 cell growth in a cell viability assay.

CAL-12T = type: functional, cell-based, Homo sapiens; details: Homo sapiens, CAL-12T
Description: SANGER: Inhibition of human CAL-12T cell growth in a cell viability assay.

769-P = type: functional, cell-based; details: Homo sapiens
Description: SANGER: Inhibition of human 769-P cell growth in a cell viability assay.

OE19 = type: functional, cell-based; details: Homo sapiens
Description: SANGER: Inhibition of human OE19 cell growth in a cell viability assay.

Detroit 562 = type: functional, cell-based; details: Homo sapiens
Description: SANGER: Inhibition of human Detroit562 cell growth in a cell viability assay.

HCE-4 = type: functional, cell-based; details: Homo sapiens
Description: SANGER: Inhibition of human HCE-4 cell growth in a cell viability assay.

NY = type: functional, cell-based; details: Homo sapiens
Description: SANGER: Inhibition of human NY cell growth in a cell viability assay.

COLO-792 = type: functional, cell-based; details: Homo sapiens
Description: SANGER: Inhibition of human COLO-792 cell growth in a cell viability assay.

SCC-15 = type: functional, cell-based; details: Homo sapiens
Description: SANGER: Inhibition of human SCC-15 cell growth in a cell viability assay.

Work on `CCn1c(-c2nonc2N)nc2cnc(Oc3cccc(NC(=O)c4ccc(OCCN5CCOCC5)cc4)c3)cc21` [GSK-269962A] yielded an IC50 (RS4-11) greater than 2500 nM, an IC50 (ETK-1) greater than 2500 nM and an IC50 (NCI-H1304) greater than 2500 nM. It also gave an IC50 (MFM-223) greater than 2500 nM, an IC50 (NOMO-1) greater than 2500 nM and an IC50 (Ramos-2G6-4C10) of 1360 nM. It also gave an IC50 (HCE-T) greater than 2500 nM, an IC50 (KNS-81-FD) greater than 2500 nM and an IC50 (SF-539) of 1290 nM. The IC50 (U-87 MG) was greater than 2500 nM, the IC50 (KARPAS-45) was greater than 2500 nM and the IC50 (LB2241-RCC) was greater than 2500 nM. It also gave an IC50 (ML-2) greater than 2500 nM, an IC50 (NEC8) greater than 2500 nM and an IC50 (OCI-AML2) greater than 2500 nM. For the same compound, the IC50 (KMOE-2) was greater than 2500 nM, the IC50 (MZ2-MEL) was greater than 2500 nM and the IC50 (HT-144) was greater than 2500 nM. For the same compound, the IC50 (NCI-H1395) was greater than 2500 nM, the IC50 (HD-MY-Z) was greater than 2500 nM and the IC50 (P30-OHK) was greater than 2500 nM. The IC50 (TE-6) was greater than 2500 nM, the IC50 (CAS-1) was 847 nM and the IC50 (NCI-H1155) was greater than 2500 nM. For the same compound, the IC50 (LS-123) was greater than 2500 nM, the IC50 (GB-1) was greater than 2500 nM and the IC50 (EW-13) was greater than 2500 nM. For the same compound, the IC50 (QIMR-WIL) was 490 nM, the IC50 (SK-N-FI) was greater than 2500 nM and the IC50 (GAK) was greater than 2500 nM. It also gave an IC50 (TE-9) greater than 2500 nM, an IC50 (MOLT-4) greater than 2500 nM and an IC50 (ES5) greater than 2500 nM. It also gave an IC50 (SNB-75) greater than 2500 nM, an IC50 (UACC-257) greater than 2500 nM and an IC50 (REH) greater than 2500 nM. The IC50 (KM12) was greater than 2500 nM, the IC50 (CTV-1) was greater than 2500 nM and the IC50 (CA46) was greater than 2500 nM. It also gave an IC50 (EOL1) greater than 2500 nM, an IC50 (SNU-5) greater than 2500 nM and an IC50 (DMS-79) greater than 2500 nM. The IC50 (RKO) was greater than 2500 nM, the IC50 (SK-LMS-1) was greater than 2500 nM and the IC50 (KG-1) was greater than 2500 nM. The IC50 (SH-4) was greater than 2500 nM, the IC50 (DB) was greater than 2500 nM and the IC50 (OS-RC-2) was greater than 2500 nM. The IC50 (HH) was greater than 2500 nM, the IC50 (GR-ST) was greater than 2500 nM and the IC50 (LOUCY) was 1150 nM. The IC50 (IST-SL1) was 2170 nM, the IC50 (KU812 cell line) was greater than 2500 nM and the IC50 (SW 954) was greater than 2500 nM. The IC50 (DOHH-2) was greater than 2500 nM and the IC50 (LB2518-MEL) was 1710 nM.

`CC[C@]1(O)C[C@@H]2CN(CCc3c([nH]c4ccccc34)[C@@](C(=O)OC)(c3cc4c(cc3OC)N(C)[C@H]3[C@@](O)(C(=O)OC)[C@H](OC(C)=O)[C@]5(CC)C=CCN6CC[C@]43[C@@H]65)C2)C1` [VINBLASTINE] was tested, and the IC50 (RS4-11) was 4.51 nM, the IC50 (ETK-1) was 5.79 nM and the IC50 (C-33-A) was 12.7 nM. It also gave an IC50 (NCI-H1304) greater than 100 nM, an IC50 (NCI-H2228) of 41.1 nM and an IC50 (MFM-223) greater than 100 nM. The IC50 (NOMO-1) was 7.86 nM, the IC50 (Ramos-2G6-4C10) was 1.55 nM and the IC50 (HCE-T) was 20 nM. It also gave an IC50 (KNS-81-FD) of 20.2 nM, an IC50 (SF-539) of 1.21 nM and an IC50 (U-87 MG) of 30 nM. For the same compound, the IC50 (KARPAS-45) was 1.79 nM, the IC50 (LB2241-RCC) was 10.1 nM and the IC50 (ML-2) was 8.65 nM. For the same compound, the IC50 (NEC8) was 5.12 nM, the IC50 (OCI-AML2) was greater than 100 nM and the IC50 (KMOE-2) was 20.8 nM. The IC50 (MZ2-MEL) was 60.3 nM, the IC50 (CAL-12T) was 56 nM and the IC50 (HT-144) was 3.32 nM. For the same compound, the IC50 (NCI-H1395) was 4.28 nM, the IC50 (HD-MY-Z) was 3.33 nM and the IC50 (P30-OHK) was 11.1 nM. The IC50 (TE-6) was 56.5 nM, the IC50 (CAS-1) was 93.1 nM and the IC50 (NCI-H1155) was 43.7 nM. For the same compound, the IC50 (LS-123) was 53.3 nM, the IC50 (GB-1) was 39.8 nM and the IC50 (EW-13) was 36.5 nM. It also gave an IC50 (769-P) of 25.6 nM, an IC50 (OE19) greater than 100 nM and an IC50 (QIMR-WIL) of 8.95 nM. For the same compound, the IC50 (SK-N-FI) was greater than 100 nM, the IC50 (GAK) was greater than 100 nM and the IC50 (TE-9) was 4.27 nM. The IC50 (MOLT-4) was 3.85 nM, the IC50 (ES5) was 3.88 nM and the IC50 (SNB-75) was 11.2 nM. The IC50 (Detroit 562) was 5.53 nM, the IC50 (UACC-257) was 90.5 nM and the IC50 (HCE-4) was 18.1 nM. For the same compound, the IC50 (KM12) was 14.4 nM, the IC50 (CTV-1) was 1.41 nM and the IC50 (NY) was greater than 100 nM. For the same compound, the IC50 (COLO-792) was 25.6 nM, the IC50 (EOL1) was 1.26 nM and the IC50 (SNU-5) was greater than 100 nM. It also gave an IC50 (DMS-79) greater than 100 nM, an IC50 (RKO) of 8.24 nM and an IC50 (SK-LMS-1) of 58.6 nM. It also gave an IC50 (KG-1) of 18.4 nM, an IC50 (SH-4) of 43.5 nM and an IC50 (DB) of 1.69 nM. It also gave an IC50 (OS-RC-2) of 69.8 nM, an IC50 (HH) of 6.37 nM and an IC50 (GR-ST) of 7.63 nM. The IC50 (IST-SL1) was 1.19 nM, the IC50 (KU812 cell line) was 16.8 nM and the IC50 (SCC-15) was 23.1 nM. For the same compound, the IC50 (SW 954) was 9.66 nM, the IC50 (DOHH-2) was 1.81 nM and the IC50 (LB2518-MEL) was greater than 100 nM.
